Experimental data taken from ChEMBL document CHEMBL3046249, “Synthesis and antifungal activity of cinnamic acid esters” (1996).

Legend:
Format in all cases: functional
Athelia rolfsii [1] = assay: Antimicrobial activity against Athelia rolfsii assessed as growth inhibition at 100 ppm by agar dilution method; conditions: Agroathelia rolfsii; read-out: GI
Pythium [2] = assay: Antimicrobial activity against Pythium sp. assessed as growth inhibition at 100 ppm by agar dilution method; conditions: read-out: GI
Athelia rolfsii [3] = assay: Antimicrobial activity against Athelia rolfsii assessed as growth inhibition at 10 ppm by agar dilution method; conditions: Agroathelia rolfsii; read-out: GI
Pythium [4] = assay: Antimicrobial activity against Pythium sp. assessed as growth inhibition at 10 ppm by agar dilution method; conditions: read-out: GI

Row | SMILES | inhibition of growth at 100 ppm (Athelia rolfsii [1]) | inhibition of growth at 100 ppm (Pythium [2]) | inhibition of growth at 10 ppm (Athelia rolfsii [3]) | inhibition of growth at 10 ppm (Pythium [4])
1 | CC(C)=CCCC(C)CCOC(=O)/C=C/c1ccc(O)cc1 (stereo not given) | 55% | 63% |  | 
2 | CCCCCCCOC(=O)/C=C/c1ccccc1 [HEPTYL CINNAMATE] | 10% | 42% |  | 
3 | O=C(/C=C/c1ccccc1)OCCc1ccccc1 [PHENETHYL CINNAMATE] | 22% | 28% |  | 
4 | CCCCOC(=O)/C=C/c1ccc(O)cc1 | 81% | 71% | 29% | 35%
5 | CCCCOC(=O)/C=C/c1ccc(O)c(OC)c1 | 0% | 0% |  | 
6 | COc1cc(/C=C/C(=O)OC(C)C)ccc1O | 38% | 18% |  | 
7 | Cc1ccc(C(C)C)c(OC(=O)/C=C/c2ccccc2)c1 | 45% | 54% |  | 
8 | CCOC(=O)/C=C/c1ccc(O)c(OC)c1 [ETHYL FERULATE] | 43% | 50% |  | 
9 | O=C(O)/C=C/c1ccccc1 [CINNAMIC ACID] | 100% | 97% | 24% | 12%
10 | CCCOC(=O)/C=C/c1ccc(O)cc1 | 70% | 91% | 9% | 31%
11 | COc1cc(/C=C/C(=O)O)ccc1O [FERULATE] | 54% | 48% |  | 
12 | O=C(/C=C/c1ccc(O)cc1)Oc1ccccc1 | 53% | 80% |  | 16%
13 | COc1cc(/C=C/C(=O)Oc2cc(C)ccc2C(C)C)ccc1O | 58% | 9% |  | 
14 | COc1cc(/C=C/C(=O)Oc2ccc(C)cc2C(C)C)ccc1O | 37% | 49% |  | 
15 | CCOC(=O)/C=C/c1ccc(O)cc1 [ETHYL P-COUMARATE] | 45% | 87% | 8% | 29%
16 | Cc1ccc(C(C)C)c(OC(=O)/C=C/c2ccc(O)cc2)c1 | 31% | 33% |  | 
17 | Cc1ccc(OC(=O)/C=C/c2ccc(O)cc2)c(C(C)C)c1 | 38% | 36% |  | 
18 | CC(C)OP(=O)(OC(C)C)SCc1ccccc1 [IPROBENFOS] | 100% | 89% | 69% | 42%
19 | COC(=O)/C=C/c1ccccc1 [E-METHYL CINNAMATE] | 53% | 66% |  | 
20 | COC(=O)/C=C/c1ccc(O)c(OC)c1 | 37% | 0% |  | 
21 | CC(C)OC(=O)/C=C/c1ccc(O)cc1 [ISOPROPYL 3-(4-HYDROXYPHENYL)ACRYLATE] | 84% | 98% | 10% | 41%
22 | CCCOC(=O)/C=C/c1ccc(O)c(OC)c1 | 26% | 9% |  | 
23 | O=C(O)/C=C/c1ccc(O)cc1 [COUMARIC ACID] | 46% | 10% |  | 
24 | CCCCCCCCOC(=O)/C=C/c1ccccc1 [OCTYL CINNAMATE] | 13% | 56% |  | 
25 | CC(C)=CCCC(C)CCOC(=O)/C=C/c1ccccc1 (stereo not given) | 0% | 0% |  | 
26 | COC(=O)/C=C/c1ccc(O)cc1 [METHYL P-HYDROXYCINNAMATE] | 41% | 54% |  | 0%
27 | C=CCc1ccc(OC(=O)/C=C/c2ccc(O)c(OC)c2)c(OC)c1 | 38% | 31% |  | 
28 | C=CCc1ccc(OC(=O)/C=C/c2ccccc2)c(OC)c1 | 22% | 28% |  | 
